Reference: paper PMC12449476, “Transient ligand contacts of the intrinsically disordered N-terminus of neuropeptide Y2 receptor regulate arrestin-3 recruitment” (Nature Communications, 2025)

Assays:
[1] = test system: bicelle-reconstituted full-length cysteine-deficient Y2R; test: XL-MS competition experiment; type: binding, human; conditions: 50 × molar excess competitor
Method: (§1) Samples were denatured in 10% SDS, 100 mM Tris-HCl (pH 7.5) and subjected to S-Trap enrichment (Protifi, Fairport, NY, USA). Afterwards, proteins were reduced, alkylated, and enzymatically digested with AspN and trypsin according to an existing protocol. Samples were stored at − 20 °C before LC-MS analysis.

WT Nluc-Y2R-eYFP = biological target: T1, WT Nluc-Y2R-eYFP (Homo sapiens, UniProt P49146); conditions: small molecule antagonist vs labeled NPY; cited from earlier work
T1 construct: expressed in transfected cells; host or cells: membrane preparations of transiently transfected HEK293
T1 sequence (P49146 1-381): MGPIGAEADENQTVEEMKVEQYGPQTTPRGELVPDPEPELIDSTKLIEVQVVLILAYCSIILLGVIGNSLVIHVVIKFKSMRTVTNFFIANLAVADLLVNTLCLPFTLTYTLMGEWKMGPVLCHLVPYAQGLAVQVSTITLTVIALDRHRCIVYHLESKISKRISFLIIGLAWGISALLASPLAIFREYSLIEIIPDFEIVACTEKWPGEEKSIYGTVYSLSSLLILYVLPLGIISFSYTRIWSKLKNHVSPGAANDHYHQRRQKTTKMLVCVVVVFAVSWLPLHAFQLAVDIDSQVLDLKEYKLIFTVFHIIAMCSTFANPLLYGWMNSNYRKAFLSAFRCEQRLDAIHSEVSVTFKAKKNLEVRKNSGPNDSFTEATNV
From the text: In the following, we are addressing the Reviewer’s comments point‐by‐point. We quote statements from the Reviewer in bold face. We refer to changes made in the manuscript in yellow italics. Reviewer #1 (Remarks to the Author): In this work ...

[2] = test system: bicelle-reconstituted full-length cysteine-deficient Y2R; test: XL-MS with full-length Y2R; type: binding, human; conditions: LC-TIMS-MS/MS
Method: as §1
Peptide mixtures were reconstituted in an aqueous solution of 3% (v/v) ACN and 0.05% (v/v) TFA prior to LC-TIMS-MS/MS analysis on an UltiMate 3000 RSLC nano-HPLC system (Thermo Fisher Scientific, Waltham, MA, USA) coupled to a timsTOF Pro mass spectrometer (Bruker Daltonics, Bremen, Germany). Peptides were trapped and desalted on a C18 precolumn (Acclaim PepMap 100, 300 μm × 5 mm, 5 μm, 100 Å, Thermo Fisher Scientific, Waltham, MA, USA) with aqueous 0.1 % (v/v) TFA at a flow rate of 30 μL/min (precolumn temperature 50 °C). Using a flow of 300 nL/min, peptide mixtures were then eluted and separated on a self-packed Picofrit C18 column, 75 µm ID x 40 cm, Tip ID 15 µm (New Objective, Littleton, MA, USA), packed with Reprosil-Pur 120 C18-AQ, 3 µm, 120 Å material (Dr. Maisch GmbH, Ammerbuch, Germany) or a µPAC 50 C18 column (PharmaFluidics, Thermo Fisher Scientific, Germany). Linear gradients were from 3% to 50% B over 90 min, 50% to 85% B (over 5 min) and 85% B (5 min); solvent A: water containing 0.1% (v/v) formic acid and solvent B: acetonitrile containing 0.1% (v/v) formic acid, the separation column was kept at 40 °C. To align results obtained with different chromatographic conditions, unmodified peptides were used as indexed retention time (iRT) standards.
Identification of cross-links was performed by a MeroX (v. 2.0.1.7, ref. [77]) search against a fasta file containing the amino acid sequences of triply diazirine-substituted [L17pL, L24pL, L30pL] […] The following settings were employed: semi-specific proteolytic cleavage: C-terminal at Lys and ArgR and N-terminal at Asp and Glu with up to 3 missed cleavages for each site and a maximum of 5 missed cleavages per peptide; peptide length of 4–25 amino acids; fixed modifications: carbamidomethylation of Cys; variable modifications: oxidation of Met; precursor and fragment mass tolerances were set to 10 ppm. […] Two searches were performed per data set, considering photo-leucine reactivity towards (i) only the acidic amino acids Asp and Glu and the protein C-terminus and (ii) reactivity towards all 20 amino acids. Peptide spectral matches were initially filtered to a 10% intensity score, a minimum score cut-off of 30 and 1% FDR (false discovery rate). Lenient FDR filters were compensated by manual validation of all proposed cross-links. In addition, DDA-PASEF data were analyzed with Skyline[78] as described recently. […]

photo-NPY = test: XL-MS, intramolecular NPY cross-links; type: binding; conditions: detected in N-term peptide experiment only
Method: as §1
Peptide mixtures were reconstituted in an aqueous solution of 3% (v/v) ACN and 0.05% (v/v) TFA prior to LC-TIMS-MS/MS analysis on an UltiMate 3000 RSLC nano-HPLC system (Thermo Fisher Scientific, Waltham, MA, USA) coupled to a timsTOF Pro mass spectrometer (Bruker Daltonics, Bremen, Germany). Peptides were trapped and desalted on a C18 precolumn (Acclaim PepMap 100, 300 μm × 5 mm, 5 μm, 100 Å, Thermo Fisher Scientific, Waltham, MA, USA) with aqueous 0.1 % (v/v) TFA at a flow rate of 30 μL/min (precolumn temperature 50 °C). […]
Identification of cross-links was performed by a MeroX (v. 2.0.1.7, ref. [77]) search against a fasta file containing the amino acid sequences of triply diazirine-substituted [L17pL, L24pL, L30pL] […] In addition, DDA-PASEF data were analyzed with Skyline[78] as described recently. […]

CCN(CC)C(=O)C(c1ccccc1)N1CCN(c2ccc(NC(=O)c3ccccc3-c3cccnc3)cc2F)CC1 (stereo not shown) [JNJ-31020028, N-(4-{4-[2-(diethylamino)-2-oxo-1-phenylethyl]piperazin-1-yl}-3-fluorophenyl)-2-pyridin-3-ylbenzamide]
Effect of excess unlabeled ligand on cross-links [1]: essentially abolished all cross-links | Blocking of high- and low-affinity binding (WT Nluc-Y2R-eYFP): can be blocked

photo-NPY: triply diazirine-substituted photo-leucine [L17pL, L24pL, L30pL] NPY variant
Number of contact points to Y2R NT [2]: 16 | Number of contacts to ECL2 [2]: three | Number of cross-links to extracellular regions of Y2R [2]: 34 | Number of peptide-receptor cross-links ([2]; total): 40 | Intra-NPY cross-linked positions (photo-NPY): pL30 & D6
